Test results reported in ChEMBL document CHEMBL1649134, “Occurrence of efflux mechanism and cephalosporinase variant in a population of Enterobacter aerogenes and Klebsiella pneumoniae isolates producing extended-spectrum beta-lactamases” (2009).
≈ marks a conversion by molar mass, not a printed value.

Experiments:
Klebsiella aerogenes [1] = experiment: Antimicrobial activity against multidrug resistant Enterobacter aerogenes isolate 1 by broth dilution method; format: functional
Klebsiella aerogenes [2] = experiment: Antimicrobial activity against multidrug resistant Enterobacter aerogenes isolate 2 by broth dilution method; format: functional
Klebsiella aerogenes [3] = experiment: Antimicrobial activity against multidrug resistant Enterobacter aerogenes isolate 3 by broth dilution method; format: functional
Klebsiella aerogenes [4] = experiment: Antimicrobial activity against multidrug resistant Enterobacter aerogenes isolate 4 by broth dilution method; format: functional
Klebsiella aerogenes [5] = experiment: Antimicrobial activity against multidrug resistant Enterobacter aerogenes isolate 5 by broth dilution method; format: functional
Klebsiella aerogenes [6] = experiment: Antimicrobial activity against multidrug resistant Enterobacter aerogenes isolate 6 by broth dilution method; format: functional
Klebsiella aerogenes [7] = experiment: Antimicrobial activity against multidrug resistant Enterobacter aerogenes isolate 7 by broth dilution method; format: functional
Klebsiella aerogenes [8] = experiment: Antimicrobial activity against multidrug resistant Enterobacter aerogenes isolate 8 by broth dilution method; format: functional
Klebsiella aerogenes [9] = experiment: Antimicrobial activity against multidrug resistant Enterobacter aerogenes isolate 9 by broth dilution method; format: functional
Klebsiella aerogenes [10] = experiment: Antimicrobial activity against multidrug resistant Enterobacter aerogenes isolate 10 by broth dilution method; format: functional
Klebsiella aerogenes [11] = experiment: Antimicrobial activity against multidrug resistant Enterobacter aerogenes isolate 11 by broth dilution method; format: functional
Klebsiella aerogenes [12] = experiment: Antimicrobial activity against multidrug resistant Enterobacter aerogenes isolate 12 by broth dilution method; format: functional
Klebsiella aerogenes [13] = experiment: Antimicrobial activity against multidrug resistant Enterobacter aerogenes isolate 13 by broth dilution method; format: functional
Klebsiella aerogenes [14] = experiment: Antimicrobial activity against multidrug resistant Enterobacter aerogenes isolate 14 by broth dilution method; format: functional
Klebsiella aerogenes [15] = experiment: Antimicrobial activity against multidrug resistant Enterobacter aerogenes isolate 15 by broth dilution method; format: functional
Klebsiella aerogenes [16] = experiment: Antimicrobial activity against multidrug resistant Enterobacter aerogenes isolate 16 by broth dilution method; format: functional
Klebsiella aerogenes [17] = experiment: Antimicrobial activity against multidrug resistant Enterobacter aerogenes isolate 17 by broth dilution method; format: functional
Klebsiella aerogenes [18] = experiment: Antimicrobial activity against multidrug resistant Enterobacter aerogenes isolate 18 by broth dilution method; format: functional
Klebsiella aerogenes [19] = experiment: Antimicrobial activity against multidrug resistant Enterobacter aerogenes isolate 19 by broth dilution method; format: functional
Klebsiella aerogenes [20] = experiment: Antimicrobial activity against multidrug resistant Enterobacter aerogenes isolate 20 by broth dilution method; format: functional
Klebsiella aerogenes [21] = experiment: Antimicrobial activity against multidrug resistant Enterobacter aerogenes isolate 21 by broth dilution method; format: functional
Klebsiella aerogenes [22] = experiment: Antimicrobial activity against multidrug resistant Enterobacter aerogenes isolate 22 by broth dilution method; format: functional
Klebsiella aerogenes [23] = experiment: Antimicrobial activity against multidrug resistant Enterobacter aerogenes isolate 23 by broth dilution method; format: functional
Klebsiella aerogenes [24] = experiment: Antimicrobial activity against multidrug resistant Enterobacter aerogenes isolate 24 by broth dilution method; format: functional
Klebsiella aerogenes [25] = experiment: Antimicrobial activity against multidrug resistant Enterobacter aerogenes isolate 25 by broth dilution method; format: functional
Klebsiella aerogenes [26] = experiment: Antimicrobial activity against multidrug resistant Enterobacter aerogenes isolate 26 by broth dilution method; format: functional
Klebsiella aerogenes [27] = experiment: Antimicrobial activity against multidrug resistant Enterobacter aerogenes isolate 27 by broth dilution method; format: functional
Klebsiella pneumoniae [28] = experiment: Antimicrobial activity against multidrug resistant Klebsiella pneumoniae ATCC 11296 by broth dilution method; format: functional
Klebsiella pneumoniae [29] = experiment: Antimicrobial activity against multidrug resistant Klebsiella pneumoniae isolate 1 by broth dilution method; format: functional
Klebsiella pneumoniae [30] = experiment: Antimicrobial activity against multidrug resistant Klebsiella pneumoniae isolate 2 by broth dilution method; format: functional
Klebsiella pneumoniae [31] = experiment: Antimicrobial activity against multidrug resistant Klebsiella pneumoniae isolate 3 by broth dilution method; format: functional
Klebsiella pneumoniae [32] = experiment: Antimicrobial activity against multidrug resistant Klebsiella pneumoniae isolate 4 by broth dilution method; format: functional
Klebsiella pneumoniae [33] = experiment: Antimicrobial activity against multidrug resistant Klebsiella pneumoniae isolate 5 by broth dilution method; format: functional
Klebsiella pneumoniae [34] = experiment: Antimicrobial activity against multidrug resistant Klebsiella pneumoniae isolate 6 by broth dilution method; format: functional
Klebsiella pneumoniae [35] = experiment: Antimicrobial activity against multidrug resistant Klebsiella pneumoniae isolate 7 by broth dilution method; format: functional
Klebsiella pneumoniae [36] = experiment: Antimicrobial activity against multidrug resistant Klebsiella pneumoniae isolate 8 by broth dilution method; format: functional
Klebsiella pneumoniae [37] = experiment: Antimicrobial activity against multidrug resistant Klebsiella pneumoniae isolate 9 by broth dilution method; format: functional
Klebsiella pneumoniae [38] = experiment: Antimicrobial activity against multidrug resistant Klebsiella pneumoniae isolate 10 by broth dilution method; format: functional
Klebsiella pneumoniae [39] = experiment: Antimicrobial activity against multidrug resistant Klebsiella pneumoniae isolate 11 by broth dilution method; format: functional
Klebsiella pneumoniae [40] = experiment: Antimicrobial activity against multidrug resistant Klebsiella pneumoniae isolate 12 by broth dilution method; format: functional
Klebsiella pneumoniae [41] = experiment: Antimicrobial activity against multidrug resistant Klebsiella pneumoniae isolate 13 by broth dilution method; format: functional
Klebsiella pneumoniae [42] = experiment: Antimicrobial activity against multidrug resistant Klebsiella pneumoniae isolate 14 by broth dilution method; format: functional
Klebsiella pneumoniae [43] = experiment: Antimicrobial activity against multidrug resistant Klebsiella pneumoniae isolate 15 by broth dilution method; format: functional
Klebsiella pneumoniae [44] = experiment: Antimicrobial activity against multidrug resistant Klebsiella pneumoniae isolate 16 by broth dilution method; format: functional
Klebsiella aerogenes [45] = experiment: Antimicrobial activity against multidrug resistant Enterobacter aerogenes ATCC 15038 by broth dilution method; format: functional
Klebsiella aerogenes [46] = experiment: Antimicrobial activity against multidrug resistant Enterobacter aerogenes ATCC 15038 harboring pDrive plasmid by broth dilution method; format: functional
Klebsiella aerogenes [47] = experiment: Antimicrobial activity against multidrug resistant Enterobacter aerogenes ATCC 15038 harboring pACM204 plasmid by broth dilution method; format: functional
Klebsiella aerogenes [48] = experiment: Antimicrobial activity against multidrug resistant Enterobacter aerogenes ATCC 15038 harboring pDrive plasmid expressing ampC gene by broth dilution method; format: functional
Escherichia coli [49] = experiment: Antimicrobial activity against multidrug resistant Escherichia coli ATCC 35218 by broth dilution method; format: functional
Escherichia coli [50] = experiment: microbe, parasite or virus in culture; conditions: DH5[alpha]
Description: Antimicrobial activity against multidrug resistant Escherichia coli DH5[alpha] by broth dilution method

Escherichia coli [51] = experiment: microbe, parasite or virus in culture; conditions: DH5[alpha]; remark: listed apart in the source
Description: Antimicrobial activity against multidrug resistant Escherichia coli DH5[alpha] harboring pDrive plasmid by broth dilution method

Escherichia coli [52] = experiment: microbe, parasite or virus in culture; conditions: DH5[alpha]; remark: listed apart in the source
Description: Antimicrobial activity against multidrug resistant Escherichia coli DH5[alpha] harboring pDrive plasmid expressing ampC gene by broth dilution method

Escherichia coli [53] = experiment: microbe, parasite or virus in culture; conditions: DH5[alpha]; remark: listed apart in the source
Description: Antimicrobial activity against multidrug resistant Escherichia coli DH5[alpha] harboring pACM204 plasmid by broth dilution method

Escherichia coli [54] = experiment: microbe, parasite or virus in culture; conditions: ATCC 35218
Description: Antimicrobial activity against multidrug resistant Escherichia coli ATCC 35218 harboring pDrive plasmid by broth dilution method

Escherichia coli [55] = experiment: microbe, parasite or virus in culture; conditions: ATCC 35218; remark: listed apart in the source
Description: Antimicrobial activity against multidrug resistant Escherichia coli ATCC 35218 harboring pDrive plasmid expressing ampC gene by broth dilution method

Q: What does the source list for `C[C@@H](O)[C@H]1C(=O)N2C(C(=O)O)=C(SCCNC=N)C[C@H]12` [IMIPENEM ANHYDROUS]?
A: MIC (Klebsiella aerogenes [1]): 1 µg/mL (≈ 3.34 µM); MIC (Klebsiella aerogenes [2]): 1 µg/mL (≈ 3.34 µM); MIC (Klebsiella aerogenes [3]): 1 µg/mL (≈ 3.34 µM); MIC (Klebsiella aerogenes [4]): 1 µg/mL (≈ 3.34 µM); MIC (Klebsiella aerogenes [5]): 2 µg/mL (≈ 6.68 µM); MIC (Klebsiella aerogenes [6]): 1 µg/mL (≈ 3.34 µM); MIC (Klebsiella aerogenes [7]): 2 µg/mL (≈ 6.68 µM); MIC (Klebsiella aerogenes [8]): 1 µg/mL (≈ 3.34 µM); MIC (Klebsiella aerogenes [9]): 1 µg/mL (≈ 3.34 µM); MIC (Klebsiella aerogenes [10]): 1 µg/mL (≈ 3.34 µM); MIC (Klebsiella aerogenes [11]): 1 µg/mL (≈ 3.34 µM); MIC (Klebsiella aerogenes [12]): 1 µg/mL (≈ 3.34 µM); MIC (Klebsiella aerogenes [13]): 2 µg/mL (≈ 6.68 µM); MIC (Klebsiella aerogenes [14]): 2 µg/mL (≈ 6.68 µM); MIC (Klebsiella aerogenes [15]): 0.5 µg/mL (≈ 1.67 µM); MIC (Klebsiella aerogenes [16]): 1 µg/mL (≈ 3.34 µM); MIC (Klebsiella aerogenes [17]): 1 µg/mL (≈ 3.34 µM); MIC (Klebsiella aerogenes [18]): 1 µg/mL (≈ 3.34 µM); MIC (Klebsiella aerogenes [19]): 2 µg/mL (≈ 6.68 µM); MIC (Klebsiella aerogenes [20]): 1 µg/mL (≈ 3.34 µM); MIC (Klebsiella aerogenes [21]): 2 µg/mL (≈ 6.68 µM); MIC (Klebsiella aerogenes [22]): 1 µg/mL (≈ 3.34 µM); MIC (Klebsiella aerogenes [23]): 1 µg/mL (≈ 3.34 µM); MIC (Klebsiella aerogenes [24]): 1 µg/mL (≈ 3.34 µM); MIC (Klebsiella aerogenes [25]): 1 µg/mL (≈ 3.34 µM); MIC (Klebsiella aerogenes [26]): 1 µg/mL (≈ 3.34 µM); MIC (Klebsiella aerogenes [27]): 1 µg/mL (≈ 3.34 µM); MIC (Klebsiella pneumoniae [28]): 0.5 µg/mL (≈ 1.67 µM); MIC (Klebsiella pneumoniae [29]): 0.25 µg/mL (≈ 0.835 µM); MIC (Klebsiella pneumoniae [30]): 0.25 µg/mL (≈ 0.835 µM); MIC (Klebsiella pneumoniae [31]): 2 µg/mL (≈ 6.68 µM); MIC (Klebsiella pneumoniae [32]): 1 µg/mL (≈ 3.34 µM); MIC (Klebsiella pneumoniae [33]): 0.5 µg/mL (≈ 1.67 µM); MIC (Klebsiella pneumoniae [34]): 0.5 µg/mL (≈ 1.67 µM); MIC (Klebsiella pneumoniae [35]): 0.5 µg/mL (≈ 1.67 µM); MIC (Klebsiella pneumoniae [36]): 0.5 µg/mL (≈ 1.67 µM); MIC (Klebsiella pneumoniae [37]): 0.5 µg/mL (≈ 1.67 µM); MIC (Klebsiella pneumoniae [38]): 0.5 µg/mL (≈ 1.67 µM); MIC (Klebsiella pneumoniae [39]): 0.5 µg/mL (≈ 1.67 µM); MIC (Klebsiella pneumoniae [40]): 1 µg/mL (≈ 3.34 µM); MIC (Klebsiella pneumoniae [41]): 1 µg/mL (≈ 3.34 µM); MIC (Klebsiella pneumoniae [42]): 0.5 µg/mL (≈ 1.67 µM); MIC (Klebsiella pneumoniae [43]): 1 µg/mL (≈ 3.34 µM); MIC (Klebsiella pneumoniae [44]): 0.5 µg/mL (≈ 1.67 µM); MIC (Klebsiella aerogenes [45]): 0.25 µg/mL (≈ 0.835 µM); MIC (Klebsiella aerogenes [46]): 0.5 µg/mL (≈ 1.67 µM); MIC (Klebsiella aerogenes [47]): 0.5 µg/mL (≈ 1.67 µM); MIC (Klebsiella aerogenes [48]): 2 µg/mL (≈ 6.68 µM); MIC (Escherichia coli [49]): 0.125 µg/mL (≈ 0.418 µM); MIC (Escherichia coli [50]): 0.25 µg/mL (≈ 0.835 µM); MIC (Escherichia coli [51]): 0.25 µg/mL (≈ 0.835 µM); MIC (Escherichia coli [52]): 2 µg/mL (≈ 6.68 µM); MIC (Escherichia coli [53]): 0.5 µg/mL (≈ 1.67 µM); MIC (Escherichia coli [54]): 0.25 µg/mL (≈ 0.835 µM); MIC (Escherichia coli [55]): 0.5 µg/mL (≈ 1.67 µM)
